Measured values published in ChEMBL document CHEMBL1149735, “Stereoselective synthesis and antimalarial activity of alpha-artelinic acid from artemisinin” (J Nat Prod, 1992).
Activity calls are given as the source filed them. The calls are words filed in the database; no cut-off is given here.

How the values were obtained:
[1] = Toxicity in Swiss mouse; assay type: organism-based; settings: in vivo
Plasmodium knowlesi [2] = test: Antimalarial activity as parasite elimination up to day 50 against Plasmodium knowlesi infected Rhesus monkey at 30 mg/kg intravenous dose over 3 days; assay type: functional, organism-based; parameters: dose 30 mg/kg
Plasmodium knowlesi [3] = test: Antimalarial activity as parasite elimination after 24 hrs against Plasmodium knowlesi infected Rhesus monkey at 30 mg/kg intravenous dose; assay type: functional, organism-based; parameters: dose 30 mg/kg
Plasmodium knowlesi [4] = test: Antimalarial activity as cures at day 50 in Plasmodium knowlesi infected Rhesus monkey assessed at 15 mg/kg intravenous dose for 3 days; assay type: functional, organism-based; parameters: dose 15 mg/kg

C[C@@H]1[C@H](OCc2ccc(C(=O)O)cc2)O[C@@H]2O[C@@]3(C)CC[C@@H]4[C@@H](C)CC[C@@H]1[C@]24OO3 [ARTELINIC ACID]
LD50 [1]: 1000 mg/kg | Activity (Plasmodium knowlesi [2]): Active | Activity (Plasmodium knowlesi [3]): Active | Activity (Plasmodium knowlesi [4]): inactive
